Laboratory results from PubChem BioAssay (NCI).
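96-well plates; 48 h exposure; 5 concentrations. Endpoints by linear interpolation between flanking doses. Not reached: highest tested concentration assigned. GI50 is the concentration that inhibits growth by half. TGI: concentration producing complete growth inhibition.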

What was measured:
Assay in all cases: inhibition of tumour cell growth, NCI panel, 48 h
NCI/ADR-RES ovarian = system: NCI/ADR-RES ovarian
OVCAR-3 ovarian = system: OVCAR-3 ovarian
IGROV1 ovarian = system: IGROV1 ovarian
SW-620 colon = system: SW-620 colon
OVCAR-5 ovarian = system: OVCAR-5 ovarian
UACC-257 melanoma = system: UACC-257 melanoma
DU-145 prostate = system: DU-145 prostate
MALME-3M melanoma = system: MALME-3M melanoma
SN12C renal = system: SN12C renal
NCI-H460 lung = system: NCI-H460 lung
OVCAR-4 ovarian = system: OVCAR-4 ovarian
EKVX NSCLC = system: EKVX NSCLC
HCC-2998 colon = system: HCC-2998 colon
PC-3 prostate = system: PC-3 prostate
RPMI-8226 leukemia = system: RPMI-8226 leukemia
SK-MEL-28 melanoma = system: SK-MEL-28 melanoma
TK-10 renal = system: TK-10 renal
SNB-75 CNS = system: SNB-75 CNS
786-0 renal = system: 786-0 renal
MCF7 breast = system: MCF7 breast
A498 renal = system: A498 renal
HOP-92 NSCLC = system: HOP-92 NSCLC
NCI-H226 lung = system: NCI-H226 lung
SF-268 CNS = system: SF-268 CNS
T-47D breast = system: T-47D breast
SNB-19 CNS = system: SNB-19 CNS
COLO 205 colon = system: COLO 205 colon
CAKI-1 renal = system: CAKI-1 renal
NCI-H23 lung = system: NCI-H23 lung
SF-295 CNS = system: SF-295 CNS
BT-549 breast = system: BT-549 breast
NCI-H522 lung = system: NCI-H522 lung
HOP-62 NSCLC = system: HOP-62 NSCLC
ACHN renal = system: ACHN renal
HCT-15 colon = system: HCT-15 colon
UACC-62 melanoma = system: UACC-62 melanoma
HT29 colon = system: HT29 colon
SK-OV-3 ovarian = system: SK-OV-3 ovarian
SF-539 CNS = system: SF-539 CNS
LOX IMVI melanoma = system: LOX IMVI melanoma
MOLT-4 leukemia = system: MOLT-4 leukemia
SK-MEL-2 melanoma = system: SK-MEL-2 melanoma
RXF 393 renal = system: RXF 393 renal
A549 NSCLC = system: A549 NSCLC
KM12 colon = system: KM12 colon
SK-MEL-5 melanoma = system: SK-MEL-5 melanoma
MDA-MB-435 = system: MDA-MB-435
U251 CNS = system: U251 CNS
MDA-MB-231 breast = system: MDA-MB-231 breast
HS 578T breast = system: HS 578T breast
UO-31 renal = system: UO-31 renal
OVCAR-8 ovarian = system: OVCAR-8 ovarian
SR leukemia = system: SR leukemia

Structure (SMILES): Cc1ccc(C(=O)Nc2ccc(CNCCN3CCNCC3)c(C(F)(F)F)c2)cc1C#Cc1cnc2cccnn12
- GI50 (NCI/ADR-RES ovarian): 7540 nM
- TGI (NCI/ADR-RES ovarian): 26700 nM
- GI50 (OVCAR-3 ovarian): 1970 nM
- TGI (OVCAR-3 ovarian): 3610 nM
- GI50 (IGROV1 ovarian): 1850 nM
- TGI (IGROV1 ovarian): 3490 nM
- GI50 (SW-620 colon): 1940 nM
- TGI (SW-620 colon): 3650 nM
- GI50 (OVCAR-5 ovarian): 1790 nM
- TGI (OVCAR-5 ovarian): 3310 nM
- GI50 (UACC-257 melanoma): 1930 nM
- TGI (UACC-257 melanoma): 3850 nM
- GI50 (DU-145 prostate): 1890 nM
- TGI (DU-145 prostate): 3390 nM
- GI50 (MALME-3M melanoma): 1710 nM
- TGI (MALME-3M melanoma): 3390 nM
- GI50 (SN12C renal): 1770 nM
- TGI (SN12C renal): 3380 nM
- GI50 (NCI-H460 lung): 1990 nM
- TGI (NCI-H460 lung): 3810 nM
- GI50 (OVCAR-4 ovarian): 2040 nM
- TGI (OVCAR-4 ovarian): 4260 nM
- GI50 (EKVX NSCLC): 2120 nM
- TGI (EKVX NSCLC): 4130 nM
- GI50 (HCC-2998 colon): 1970 nM
- TGI (HCC-2998 colon): 3620 nM
- GI50 (PC-3 prostate): 1860 nM
- TGI (PC-3 prostate): 3400 nM
- GI50 (RPMI-8226 leukemia): 2180 nM
- TGI (RPMI-8226 leukemia): 4910 nM
- GI50 (SK-MEL-28 melanoma): 1730 nM
- TGI (SK-MEL-28 melanoma): 3190 nM
- GI50 (TK-10 renal): 1970 nM
- TGI (TK-10 renal): 3580 nM
- GI50 (SNB-75 CNS): 714 nM
- TGI (SNB-75 CNS): 3530 nM
- GI50 (786-0 renal): 2170 nM
- TGI (786-0 renal): 3890 nM
- GI50 (MCF7 breast): 1780 nM
- TGI (MCF7 breast): 3400 nM
- GI50 (A498 renal): 1800 nM
- TGI (A498 renal): 3360 nM
- GI50 (HOP-92 NSCLC): 1450 nM
- TGI (HOP-92 NSCLC): 3250 nM
- GI50 (NCI-H226 lung): 1840 nM
- TGI (NCI-H226 lung): 3740 nM
- GI50 (SF-268 CNS): 2140 nM
- TGI (SF-268 CNS): 4110 nM
- GI50 (T-47D breast): 1940 nM
- TGI (T-47D breast): 4090 nM
- GI50 (SNB-19 CNS): 1960 nM
- TGI (SNB-19 CNS): 3540 nM
- GI50 (COLO 205 colon): 1930 nM
- TGI (COLO 205 colon): 3870 nM
- GI50 (CAKI-1 renal): 1790 nM
- TGI (CAKI-1 renal): 3370 nM
- GI50 (NCI-H23 lung): 1850 nM
- TGI (NCI-H23 lung): 3450 nM
- GI50 (SF-295 CNS): 1780 nM
- TGI (SF-295 CNS): 3310 nM
- GI50 (BT-549 breast): 2170 nM
- TGI (BT-549 breast): 3910 nM
- GI50 (NCI-H522 lung): 1780 nM
- TGI (NCI-H522 lung): 3480 nM
- GI50 (HOP-62 NSCLC): 1860 nM
- TGI (HOP-62 NSCLC): 3630 nM
- GI50 (ACHN renal): 1820 nM
- TGI (ACHN renal): 3270 nM
- GI50 (HCT-15 colon): 1870 nM
- TGI (HCT-15 colon): 3430 nM
- GI50 (UACC-62 melanoma): 1740 nM
- TGI (UACC-62 melanoma): 3270 nM
- GI50 (HT29 colon): 1390 nM
- TGI (HT29 colon): 2780 nM
- GI50 (SK-OV-3 ovarian): 2130 nM
- TGI (SK-OV-3 ovarian): 3950 nM
- GI50 (SF-539 CNS): 1630 nM
- TGI (SF-539 CNS): 3060 nM
- GI50 (LOX IMVI melanoma): 1730 nM
- TGI (LOX IMVI melanoma): 3180 nM
- GI50 (MOLT-4 leukemia): 1680 nM
- TGI (MOLT-4 leukemia): 4470 nM
- GI50 (SK-MEL-2 melanoma): 1810 nM
- TGI (SK-MEL-2 melanoma): 3680 nM
- GI50 (RXF 393 renal): 1800 nM
- TGI (RXF 393 renal): 3240 nM
- GI50 (A549 NSCLC): 1920 nM
- TGI (A549 NSCLC): 3730 nM
- GI50 (KM12 colon): 1780 nM
- TGI (KM12 colon): 3350 nM
- GI50 (SK-MEL-5 melanoma): 1760 nM
- TGI (SK-MEL-5 melanoma): 3250 nM
- GI50 (MDA-MB-435): 1770 nM
- TGI (MDA-MB-435): 3300 nM
- GI50 (U251 CNS): 1720 nM
- TGI (U251 CNS): 3210 nM
- GI50 (MDA-MB-231 breast): 1410 nM
- TGI (MDA-MB-231 breast): 2970 nM
- GI50 (HS 578T breast): 2070 nM
- TGI (HS 578T breast): 5250 nM
- GI50 (UO-31 renal): 2460 nM
- TGI (UO-31 renal): 5900 nM
- GI50 (OVCAR-8 ovarian): 2070 nM
- TGI (OVCAR-8 ovarian): 4010 nM
- GI50 (SR leukemia): 2470 nM
- TGI (SR leukemia): > 100000 nM
